Measured values reported in patent US10981932B2, “Macrocyclic indole derivatives” (Bayer Aktiengesellschaft, priority 2016, dated 2021).
Where two headings read alike, the source gives them in different places.

How the values were obtained:
SUDHL5 [1] = assay: Anti-proliferative effect (CellTiter-Glo, 72 h), SUDHL5; format: cell-based; conditions: SUDHL5 cells, antiproliferation, 72 h incubation, median, read-out: Antiproli SUDHL5 [M] (median)
Method in brief: (§1)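 72 h compound treatment, 37 °C humidified; CellTiter-Glo added, 10 min incubation, luminescence read; day 0 plate read in parallel for baseline.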

MV-4-11 = assay: Anti-proliferative effect (CellTiter-Glo, 72 h), MV-4-11; format: cell-based; conditions: MV-4-11 cells, median, read-out: IC50 antiproliferation assay MV-4-11 [M] (median)
Method in brief: as §1

MCL-1 = MCL-1 (Homo sapiens, UniProt Q07820); assay: Protein-protein interaction assay MCL-1/Noxa BH3 peptide (MCL-1 assay), TR-FRET; format: binding; conditions: MBP-MCL-1 / Noxa BH3-derived peptide, median
Method in brief: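 IC50 came from a 4-parameter fit of the normalized 665/620 nm TR-FRET ratio (anti-MBP Eu-cryptate/streptavidin-XL665). Compounds (0.1 nM–20 μM, duplicates) were preincubated 10 min at 22 °C with 1 nM MBP-MCL-1 in pH 7 Tris/NaCl/KF buffer, then read after 1 h at 22 °C plus overnight at 4 °C.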

A2780 = assay: Anti-proliferative effect (CellTiter-Glo, 72 h), A2780; format: cell-based; conditions: A2780 cells, median, read-out: IC50 antiproliferation assay A2780 [M] (median)
Method in brief: as §1

SUDHL5 [2] = assay: Induction of cytotoxicity (CellTiter-Glo, 5 h), SUDHL5; conditions: read-out: Cytotox SUDHL5 [M] (median); SUDHL5 cells, cytotoxicity induction, CellTiter-Glo, 5 h incubation, median
SUDHL5 [3] = assay: Induction of caspase-3/7 activity (Caspase-Glo 3/7), SUDHL5; format: cell-based; conditions: caspase-3/7 induction, SUDHL5 cells, 3 h treatment; median
Method in brief: (§2)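 DLBCL lines SUDHL5 and SUDHL10 treated with compounds for 3 h at 37 °C; caspase-3/7 activity read by Caspase-Glo 3/7 luminescence. Medium-only background subtracted; EC50 fitted with bottom fixed at 1 and top fixed at the reference compound's maximal induction.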

SUDHL10 [4] = assay: Induction of caspase-3/7 activity (Caspase-Glo 3/7), SUDHL10; format: cell-based; conditions: caspase-3/7 induction, SUDHL10 cells, 3 h treatment, median
Method in brief: as §2

SUDHL10 [5] = assay: Induction of cytotoxicity (CellTiter-Glo, 5 h), SUDHL10; conditions: read-out: Cytotox SUDHL10 [M] (median); SUDHL10 cells, cytotoxicity induction, CellTiter-Glo, 5 h incubation, median

MCL-1, sequence (Q07820 whole entry): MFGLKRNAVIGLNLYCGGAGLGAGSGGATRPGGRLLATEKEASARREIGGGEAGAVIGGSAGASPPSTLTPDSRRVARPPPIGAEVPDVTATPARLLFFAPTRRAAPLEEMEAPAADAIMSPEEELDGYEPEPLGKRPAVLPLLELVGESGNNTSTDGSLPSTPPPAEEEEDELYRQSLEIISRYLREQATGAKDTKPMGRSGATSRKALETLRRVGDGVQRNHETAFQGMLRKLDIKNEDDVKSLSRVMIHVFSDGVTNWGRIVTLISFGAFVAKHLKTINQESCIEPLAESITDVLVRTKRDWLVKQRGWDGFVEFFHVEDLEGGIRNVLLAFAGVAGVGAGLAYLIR

| IC50 (SUDHL5 [1]) [M] | IC50 (MV-4-11) [M] | IC50 (MCL-1) [µM] | IC50 (A2780) [M] | EC50 (SUDHL5 [3]) [µM] | EC50 (SUDHL10 [4]) [µM] | IC50 (MV-4-11; Homo sapiens, MV4-11, 72 h) [M] | IC50 (A2780; Homo sapiens, A2780, 72 h) [M] | IC50 (SUDHL5 [1]; Homo sapiens, SU-DHL-5, 72 h) [M] | EC50 (SUDHL10 [4]; Homo sapiens, SU-DHL10, 3 h) [µM] | SMILES | IC50 (SUDHL5 [2]) [M] | IC50 (SUDHL10 [5]) [M] |
| --- | --- | --- | --- | --- | --- | --- | --- | --- | --- | --- | --- | --- |
| 9.48e-06 | 2.19e-05 | 0.00678 | 2.6e-05 | 11.2 | 25.1 | – | – | – | – | Cn1nc2c(c1OC(F)F)-c1cccc3c(CCCOc4cccc5ccccc45)c(C(=O)O)n(c13)CCCCOC2 (single isomer, unassigned) [Example 236, (+)-3-(difluoromethoxy)-2-methyl-7-[3-(naphthalen-1-yloxy)propyl]-2,10,11,12,13,15-hexahydropyrazolo[4′,3′:9,10][1,6]oxazacycloundecino[8,7,6-hi]indole-8-carboxylic Acid] | 1.06e-05 | 2.52e-05 |
| 2.32e-06 | – | 0.00214 | 2.25e-05 | 3.01 | 7.24 | 8.59e-06 | > 3.3e-05 | – | – | O=C(O)c1c(CCCOc2cccc3ccccc23)c2cccc3c2n1CCCCOCc1nn2c(c1-3)CCCC2 (single isomer, unassigned) [Example 254, 1-[3-(naphthalen-1-yloxy)propyl]-4,5,6,7,12,13,14,15-octahydro-9H-pyrido[1″,2″:1′,5′]pyrazolo[4′,3′:9,10][1,6]oxazacycloundecino[8,7,6-hi]indole-2-carboxylic Acid] | 3.21e-06 | 8.11e-06 |
| 1.39e-05 | 1.31e-05 | 0.067 | 2.48e-05 | > 33 | > 33 | – | – | – | – | O=C(O)c1c(CCCOc2cccc3ccccc23)c2cccc3c2n1CCCCOCc1nn2c(c1-3)CCCC2 (single isomer, unassigned) [Example 255, 1-[3-(naphthalen-1-yloxy)propyl]-4,5,6,7,12,13,14,15-octahydro-9H-pyrido[1″,2″:1′,5′]pyrazolo[4′,3′:9,10][1,6]oxazacycloundecino[8,7,6-hi]indole-2-carboxylic Acid] | > 3.3e-05 | 3.28e-05 |
| 3.61e-06 | – | 0.00875 | 2.2e-05 | 10.2 | 11.3 | 4.35e-06 | – | – | – | Cc1ccc2c(C(C)CCOc3cccc4ccccc34)c(C(=O)O)n3c2c1-c1c(C)nn(C)c1COCCCC3 (single isomer, unassigned) [Example 260, 1,3,4-trimethyl-7-[4-(naphthalen-1-yloxy)butan-2-yl]-1,10,11,12,13,15-hexahydropyrazolo[4′3′:9,10][1,6]oxazacycloundecino[8,7,6-hi]indole-8-carboxylic Acid] | 6.3e-06 | 1.18e-05 |
| 7.41e-06 | 7.46e-06 | 0.0407 | 2.29e-05 | > 33 | > 33 | – | – | – | – | CCc1nn(C)c2c1-c1c(C)ccc3c(CCCOc4cccc5cc(F)ccc45)c(C(=O)O)n(c13)CCCCOC2 (single isomer, unassigned) [Example 268, (−)-3-ethyl-7-{3-[(6-fluoronaphthalen-1-yl)oxy]propyl}-1,4-dimethyl-1,10,11,12,13,15-hexahydropyrazolo[4′,3′:9,10][1,6]oxazacycloundecino[8,7,6-hi]indole-8-carboxylic Acid] | > 3.3e-05 | > 3.3e-05 |
| – | – | 0.983 | 7.15e-06 | > 33 | – | 4.89e-06 | – | 2.76e-06 | 23.8 | CCc1nn(C)c2c1-c1c(C)ccc3c(C(C)CCOc4cccc5ccccc45)c(C(=O)O)n(c13)CCCCOC2 (single isomer, unassigned) [Example 272, 3-ethyl-1,4-dimethyl-7-[4-(naphthalen-1-yloxy)butan-2-yl]-1,10,11,12,13,15-hexahydropyrazolo[4′,3′:9,10][1,6]oxazacycloundecino[8,7,6-hi]indole-8-carboxylic Acid] | > 3.3e-05 | 2.5e-05 |
| 3.74e-06 | 4.53e-06 | 0.00589 | 4.18e-06 | 5.37 | 15.9 | – | – | – | – | CCc1nn(C)c2c1-c1c(C)ccc3c(C(C)CCOc4cccc5ccccc45)c(C(=O)O)n(c13)CCCCOC2 (single isomer, unassigned) [Example 273, 3-ethyl-1,4-dimethyl-7-[4-(naphthalen-1-yloxy)butan-2-yl]-1,10,11,12,13,15-hexahydropyrazolo[4′,3′:9,10][1,6]oxazacycloundecino[8,7,6-hi]indole-8-carboxylic Acid] | 4.58e-06 | 1.62e-05 |
| 3.93e-06 | 8.02e-06 | 1.56 | 1.17e-05 | > 33 | 31.7 | – | – | – | – | CCc1nn(C)c2c1-c1c(C)ccc3c(C(C)CCOc4cccc5ccccc45)c(C(=O)O)n(c13)CCCCOC2 (single isomer, unassigned) [Example 274, 3-ethyl-1,4-dimethyl-7-[4-(naphthalen-1-yloxy)butan-2-yl]-1,10,11,12,13,15-hexahydropyrazolo[4′,3′:9,10][1,6]oxazacycloundecino[8,7,6-hi]indole-8-carboxylic Acid] | > 3.3e-05 | > 3.3e-05 |
| 3.33e-06 | 4.52e-06 | 3.97 | 7.02e-06 | > 33 | 21.6 | – | – | – | – | CCc1nn(C)c2c1-c1c(C)ccc3c(C(C)CCOc4cccc5ccccc45)c(C(=O)O)n(c13)CCCCOC2 (single isomer, unassigned) [Example 275, 3-ethyl-1,4-dimethyl-7-[4-(naphthalen-1-yloxy)butan-2-yl]-1,10,11,12,13,15-hexahydropyrazolo[4′,3′:9,10][1,6]oxazacycloundecino[8,7,6-hi]indole-8-carboxylic Acid] | > 3.3e-05 | 2.83e-05 |
| 2.05e-06 | – | 0.0013 | – | 1.4 | 1.8 | 8.78e-06 | 1.5e-05 | – | – | Cc1ccc2c(C(C)CCOc3cccc4cc(F)ccc34)c(C(=O)O)n3c2c1-c1c(nn(C)c1C)COCCCC3 (single isomer, unassigned) [Example 277, 7-{4-[(6-fluoronaphthalen-1-yl)oxy]butan-2-yl}-2,3,4-trimethyl-2,10,11,12,13,15-hexahydropyrazolo[4′3′:9,10][1,6]oxazacycloundecino[8,7,6-hi]indole-8-carboxylic Acid] | 2.1e-06 | 2.28e-06 |
| 1.19e-05 | 1.49e-05 | 0.142 | 1.26e-05 | 26.3 | > 33 | – | – | – | – | Cc1ccc2c(C(C)CCOc3cccc4cc(F)ccc34)c(C(=O)O)n3c2c1-c1c(nn(C)c1C)COCCCC3 (single isomer, unassigned) [Example 278, 7-{4-[(6-fluoronaphthalen-1-yl)oxy]butan-2-yl}2,3,4-trimethyl-2,10,11,12,13,15-hexahydropyrazolo[4′,3′:9,10][1,6]oxazacycloundecino[8,7,6-hi]indole-8-carboxylic Acid] | 2.48e-05 | > 3.3e-05 |
| 7.56e-06 | 1.57e-05 | 1.6 | 7.5e-06 | 25.5 | 26.6 | – | – | – | – | Cc1ccc2c(C(C)CCOc3cccc4cc(F)ccc34)c(C(=O)O)n3c2c1-c1c(nn(C)c1C)COCCCC3 (single isomer, unassigned) [Example 279, 7-{4-[(6-fluoronaphthalen-1-yl)oxy]butan-2-yl}-2,3,4-trimethyl-2,10,11,12,13,15-hexahydropyrazolo[4′,3′:9,10][1,6]oxazacycloundecino[8,7,6-hi]indole-8-carboxylic Acid] | 2.05e-05 | 2.94e-05 |
| 1.18e-05 | 1.11e-05 | 0.194 | 8.02e-06 | > 33 | 32.4 | – | – | – | – | Cc1ccc2c(C(C)CCOc3cccc4cc(F)ccc34)c(C(=O)O)n3c2c1-c1c(nn(C)c1C)COCCCC3 (single isomer, unassigned) [Example 280, 7-{4-[(6-fluoronaphthalen-1-yl)oxy]butan-2-yl}-2,3,4-trimethyl-2,10,11,12,13,15-hexahydropyrazolo[4′3′:9,10][1,6]oxazacycloundecino[8,7,6-hi]indole-carboxylic Acid] | > 3.3e-05 | 3.07e-05 |
